# In patent US20250382298A1, “NITROGEN-CONTAINING COMPOUND AND USE THEREOF” (SUZHOU GENHOUSE BIO CO., LTD., priority 2022, published 2025):
# Tests used:
# HT-29 cells [1] = assay: Detection of cell proliferation activity by CCK8 method (HT-29); format: cell-based, human; conditions: CCK8, 96 h
# Outline: (§1)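 Cells seeded at 1500/well (BT-549, 1640 medium) or 2000/well (HT-29, HCT-116, McCoy's 5A), treated next day with 9-point 1:5 dilutions from 10 μM final, triplicate, for 96 h. CCK8 read at 450 nm after 2 h at 37 °C; inhibition versus DMSO, IC50 by non-linear regression.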
# BT-549 cells = assay: Detection of cell proliferation activity by CCK8 method (BT-549); format: cell-based; conditions: CCK8, 96 h
# Outline: as §1
# HCT-116 cells [2] = assay: Detection of cell proliferation activity by CCK8 method (HCT-116); format: cell-based; conditions: CCK8, 96 h
# Outline: as §1
# HT-29 cells [3] = assay: Mitotic index analysis, pH3 expression in HT-29 cells; format: cell-based, human; conditions: 24 h treatment
# Outline: (§2)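 HCT-116 or HT-29 cells treated 24 h with 9-point 3-fold dilutions from 10 μM, then fixed and immunostained for phospho-histone H3 with DRAQ5 counterstain. Near-infrared fluorescence read at 700/800 nm; pH3 expressed as % of DMSO control and EC50 fitted.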
# HCT-116 cells [4] = assay: Mitotic index analysis, pH3 expression in HCT-116 cells; format: cell-based; conditions: 24 h treatment
# Outline: as §2
# [5] = target: cytochrome oxidase P450 2C9 (Homo sapiens (Human), UniProt P11712); assay: Inhibition of cytochrome oxidase P450 2C9; format: in vitro ADME; conditions: liver microsomes, CYP2C9
# cytochrome oxidase P450 2C9, sequence (P11712 whole entry): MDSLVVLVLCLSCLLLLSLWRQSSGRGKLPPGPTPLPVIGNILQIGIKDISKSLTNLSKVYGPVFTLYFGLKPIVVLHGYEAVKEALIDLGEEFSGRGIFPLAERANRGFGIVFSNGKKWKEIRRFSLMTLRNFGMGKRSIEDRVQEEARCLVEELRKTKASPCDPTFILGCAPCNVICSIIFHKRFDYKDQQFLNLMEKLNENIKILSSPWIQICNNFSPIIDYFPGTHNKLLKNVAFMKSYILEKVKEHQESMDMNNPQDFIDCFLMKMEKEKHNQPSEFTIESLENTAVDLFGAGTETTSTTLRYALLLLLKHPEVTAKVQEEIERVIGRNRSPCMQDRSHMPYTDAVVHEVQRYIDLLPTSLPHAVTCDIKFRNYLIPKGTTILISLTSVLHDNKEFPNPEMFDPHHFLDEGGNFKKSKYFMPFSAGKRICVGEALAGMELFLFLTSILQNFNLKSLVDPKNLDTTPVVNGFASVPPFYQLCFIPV
# Description: 100 mM K-Buffer: 9.5 mL of stock solution A was mixed with 40.5 mL of stock solution B, the total volume was adjusted to 500 mL with ultrapure water, and the buffer was titrated to pH 7.4 with KOH or H3PO4. The test compound powder was prepared into a stock solution at a certain concentration with DMSO or another organic solvent, which was then further diluted with a proper organic solvent. The liver microsomal in vitro incubation system for the CYP450 enzyme metabolism phenotype study was a biochemical reaction of prepared liver microsomes supplemented with a redox coenzyme and an enzyme-specific selective inhibitor under simulated physiological temperature and environment conditions. The concentration of the parent drug or a metabolite thereof in the incubation solution was determined by LC-MS/MS.
SMILES,IC50 (HT-29 cells [1]; Homo sapiens) [nM],IC50 (BT-549 cells; Homo sapiens) [nM],IC50 (HCT-116 cells [2]; Homo sapiens) [nM],EC50 (HT-29 cells [3]; Homo sapiens) [nM],EC50 (HCT-116 cells [4]; Homo sapiens) [nM],IC50 [5] [nM],IC50 (HT-29 cells [1]) [nM],IC50 (BT-549 cells) [nM],IC50 (HCT-116 cells [2]) [nM],EC50 (HT-29 cells [3]) [nM],EC50 (HCT-116 cells [4]) [nM]
Cc1cc(NC(=O)c2ccc(NS(=O)(=O)CCO)cc2N2CC3CCC(C3)C2)nc(N2CCC(F)(F)CC2)n1 [Compound 3],115,145,> 10000,495,> 10000,,,,,,
O=C(Nc1cc2ccccc2c(N2CCC(F)(F)CC2)n1)c1ccc(NS(=O)(=O)CCO)cc1N1CCC2(CC1)CC2 [Compound 6],144,146,> 10000,175,> 10000,5280,,,,,
CS(=O)(=O)Nc1ccc(C(=O)Nc2cn3ccnc3c(N3CCC(F)(F)CC3)n2)c(N2CCC3(CC2)CC3)c1 [Compound 10],61,52,> 10000,183,> 10000,,,,,,
O=C(Nc1cc2c(c(N3CCC(F)(F)CC3)n1)COC2)c1ccc(NS(=O)(=O)CCO)cc1N1CCC2(CC1)CC2 [Compound 14],30,25,> 10000,22,> 10000,,,,,,
O=C(Nc1cc2ccsc2c(N2CCC(F)(F)CC2)n1)c1ccc(NS(=O)(=O)CCO)cc1N1CCC2(CC1)CC2 [Compound 15],107,86,> 10000,82,> 10000,,,,,,
O=C(Nc1cn2ccnc2c(N2CCC(F)(F)CC2)n1)c1ccc(NS(=O)(=O)CCO)cc1N1CC2CCC(C2)C1 [Compound 17],27,33,> 10000,57,> 10000,,,,,,
CS(=O)(=O)Nc1ccc(C(=O)Nc2cn3ccnc3c(N3CCC(F)(F)CC3)n2)c(N2CC3CCC(C3)C2)c1 [Compound 19],44,69.6,> 10000,34,> 10000,9380,,,,,
O=C(Nc1cn2cnnc2c(N2CCC(F)(F)CC2)n1)c1ccc(NS(=O)(=O)CCO)cc1N1CCC2(CC1)CC2 [Compound 24],,,,,,,142,52.8,> 10000,65.6,> 10000
O=C(Nc1cn2c(F)cnc2c(N2CCC(F)(F)CC2)n1)c1ccc(NS(=O)(=O)CCO)cc1N1CCC2(CC1)CC2 [Compound 34],28.8,33.3,> 10000,14.5,> 10000,4460,,,,,

# More lines, main results first:
IC50 (HT-29 cells [1]; Homo sapiens) [nM],IC50 (BT-549 cells; Homo sapiens) [nM],IC50 (HCT-116 cells [2]; Homo sapiens) [nM],EC50 (HT-29 cells [3]; Homo sapiens) [nM],EC50 (HCT-116 cells [4]; Homo sapiens) [nM],IC50 [5] [nM],SMILES,IC50 (HT-29 cells [1]) [nM],IC50 (BT-549 cells) [nM],IC50 (HCT-116 cells [2]) [nM],EC50 (HT-29 cells [3]) [nM],EC50 (HCT-116 cells [4]) [nM]
19,7.2,> 10000,6.4,> 10000,2660,O=C(Nc1cn2ccnc2c(N2CCC(F)(F)CC2)n1)c1ccc(NS(=O)(=O)CCO)cc1N1CCC2(CC1)CC2 [Compound 8],,,,,
5.1,8.2,> 10000,6,> 10000,> 10000,O=C(Nc1cc2cccnc2c(N2CCC(F)(F)CC2)n1)c1ccc(NS(=O)(=O)CCO)cc1N1CCC2(CC1)CC2 [Compound 21],,,,,
20.6,22.1,> 10000,8.9,> 10000,,O=C(Nc1cc2cc[nH]c2c(N2CCC(F)(F)CC2)n1)c1ccc(NS(=O)(=O)CCO)cc1N1CCC2(CC1)CC2 [Compound 22],,,,,
22.5,22.6,> 10000,9.8,> 10000,,O=C(Nc1cn2ncnc2c(N2CCC(F)(F)CC2)n1)c1ccc(NS(=O)(=O)CCO)cc1N1CCC2(CC1)CC2 [Compound 23],,,,,
10.5,18.9,> 10000,6.4,> 10000,180,CS(=O)(=O)Nc1ccc(C(=O)Nc2cc3cc[nH]c3c(N3CCC(F)(F)CC3)n2)c(N2CCC3(CC2)CC3)c1 [Compound 47],,,,,
